Reference: ChEMBL document CHEMBL1156263, “Single agents with designed combination chemotherapy potential: synthesis and evaluation of substituted pyrimido[4,5-b]indoles as receptor tyrosine kinase and thymidylate synthase inhibitors and as antitumor agents” (J Med Chem, 2010)
Calls of active or inactive are those of the source. No cut-off for these calls is given here.

How the values were obtained:
[1] = molecular target: T1, Receptor-type tyrosine-protein kinase FLT3 (Homo sapiens, UniProt P36888); assay: Inhibition of Flt3 activity in human […] cells by phosphotyrosine cell-based ELISA
T1 sequence (P36888 whole entry): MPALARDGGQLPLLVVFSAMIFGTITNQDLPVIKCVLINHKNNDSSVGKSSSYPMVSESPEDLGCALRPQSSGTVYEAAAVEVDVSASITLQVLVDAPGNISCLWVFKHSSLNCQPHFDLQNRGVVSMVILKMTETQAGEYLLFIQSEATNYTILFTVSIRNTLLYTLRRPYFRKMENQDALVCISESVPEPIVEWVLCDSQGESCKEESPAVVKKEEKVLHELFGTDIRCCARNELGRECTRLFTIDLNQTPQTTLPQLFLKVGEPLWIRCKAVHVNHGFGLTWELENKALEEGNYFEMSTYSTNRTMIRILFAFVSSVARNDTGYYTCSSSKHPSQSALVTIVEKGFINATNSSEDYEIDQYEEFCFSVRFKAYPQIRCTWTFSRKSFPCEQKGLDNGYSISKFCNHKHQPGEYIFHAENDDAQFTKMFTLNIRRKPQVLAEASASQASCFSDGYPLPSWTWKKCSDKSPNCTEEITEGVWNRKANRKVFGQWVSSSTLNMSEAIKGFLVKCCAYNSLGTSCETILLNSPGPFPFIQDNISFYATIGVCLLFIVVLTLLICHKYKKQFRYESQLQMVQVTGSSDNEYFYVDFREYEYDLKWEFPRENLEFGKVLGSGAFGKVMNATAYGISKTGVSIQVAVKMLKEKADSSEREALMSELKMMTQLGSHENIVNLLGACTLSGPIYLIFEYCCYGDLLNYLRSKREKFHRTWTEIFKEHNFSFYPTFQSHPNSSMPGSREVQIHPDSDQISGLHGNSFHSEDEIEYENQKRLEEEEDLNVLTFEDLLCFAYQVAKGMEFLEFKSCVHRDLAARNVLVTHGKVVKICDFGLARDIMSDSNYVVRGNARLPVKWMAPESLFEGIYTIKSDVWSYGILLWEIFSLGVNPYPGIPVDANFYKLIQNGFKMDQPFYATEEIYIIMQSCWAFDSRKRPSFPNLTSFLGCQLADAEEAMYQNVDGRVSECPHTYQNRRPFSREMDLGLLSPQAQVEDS

[2] = molecular target: T2, Mitogen-activated protein kinase; ERK1/ERK2 (Homo sapiens) (UniProt P27361+P28482); assay: Reduction of ERK1/2 activation in human MDA-MB-435 cells at 20 uM after 4 hrs by Western blot analysis; type: cell-based
T2 sequence (P27361 whole entry, looked up): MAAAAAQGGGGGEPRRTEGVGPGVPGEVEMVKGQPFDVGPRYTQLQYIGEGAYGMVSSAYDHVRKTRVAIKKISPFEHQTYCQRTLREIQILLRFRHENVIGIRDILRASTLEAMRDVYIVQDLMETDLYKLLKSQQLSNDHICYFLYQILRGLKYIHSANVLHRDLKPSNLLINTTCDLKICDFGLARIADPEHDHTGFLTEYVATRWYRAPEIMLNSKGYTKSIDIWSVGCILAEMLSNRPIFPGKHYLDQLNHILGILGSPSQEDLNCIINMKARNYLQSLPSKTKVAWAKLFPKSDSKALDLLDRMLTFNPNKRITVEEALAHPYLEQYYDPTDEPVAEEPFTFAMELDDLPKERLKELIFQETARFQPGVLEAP
T2 sequence (P28482 whole entry, looked up): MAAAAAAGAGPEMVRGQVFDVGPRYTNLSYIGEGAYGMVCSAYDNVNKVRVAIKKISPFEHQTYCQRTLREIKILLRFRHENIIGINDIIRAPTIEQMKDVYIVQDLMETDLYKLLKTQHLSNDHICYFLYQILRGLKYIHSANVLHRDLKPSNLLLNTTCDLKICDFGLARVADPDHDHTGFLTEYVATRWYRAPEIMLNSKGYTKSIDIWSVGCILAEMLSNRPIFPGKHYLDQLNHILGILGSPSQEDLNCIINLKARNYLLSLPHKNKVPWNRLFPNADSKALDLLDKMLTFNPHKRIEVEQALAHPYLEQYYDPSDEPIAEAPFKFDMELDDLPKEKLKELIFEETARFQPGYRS

[3] = molecular target: T3, Dihydrofolate reductase (Homo sapiens) (UniProt P00374); assay: Inhibition of human DHFR at IC50
T3 sequence (whole entry): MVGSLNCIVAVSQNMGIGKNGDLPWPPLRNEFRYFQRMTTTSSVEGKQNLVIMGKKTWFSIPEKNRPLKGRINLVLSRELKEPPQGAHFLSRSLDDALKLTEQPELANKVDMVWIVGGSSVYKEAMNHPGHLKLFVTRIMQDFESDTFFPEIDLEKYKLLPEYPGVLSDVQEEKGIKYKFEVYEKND

Dihydrofolate reductase = molecular target: T4, Dihydrofolate reductase (Homo sapiens, UniProt P00374); assay: Inhibition of human DHFR
T4 sequence (P00374 whole entry): T3 sequence (whole entry)

[4] = molecular target: Vascular endothelial growth factor receptor 1 (Homo sapiens, UniProt P17948); assay: Inhibition of VEGFR1 in human A498 cells by phosphotyrosine cell-based ELISA
Chain of Vascular endothelial growth factor receptor 1 (P17948 whole entry): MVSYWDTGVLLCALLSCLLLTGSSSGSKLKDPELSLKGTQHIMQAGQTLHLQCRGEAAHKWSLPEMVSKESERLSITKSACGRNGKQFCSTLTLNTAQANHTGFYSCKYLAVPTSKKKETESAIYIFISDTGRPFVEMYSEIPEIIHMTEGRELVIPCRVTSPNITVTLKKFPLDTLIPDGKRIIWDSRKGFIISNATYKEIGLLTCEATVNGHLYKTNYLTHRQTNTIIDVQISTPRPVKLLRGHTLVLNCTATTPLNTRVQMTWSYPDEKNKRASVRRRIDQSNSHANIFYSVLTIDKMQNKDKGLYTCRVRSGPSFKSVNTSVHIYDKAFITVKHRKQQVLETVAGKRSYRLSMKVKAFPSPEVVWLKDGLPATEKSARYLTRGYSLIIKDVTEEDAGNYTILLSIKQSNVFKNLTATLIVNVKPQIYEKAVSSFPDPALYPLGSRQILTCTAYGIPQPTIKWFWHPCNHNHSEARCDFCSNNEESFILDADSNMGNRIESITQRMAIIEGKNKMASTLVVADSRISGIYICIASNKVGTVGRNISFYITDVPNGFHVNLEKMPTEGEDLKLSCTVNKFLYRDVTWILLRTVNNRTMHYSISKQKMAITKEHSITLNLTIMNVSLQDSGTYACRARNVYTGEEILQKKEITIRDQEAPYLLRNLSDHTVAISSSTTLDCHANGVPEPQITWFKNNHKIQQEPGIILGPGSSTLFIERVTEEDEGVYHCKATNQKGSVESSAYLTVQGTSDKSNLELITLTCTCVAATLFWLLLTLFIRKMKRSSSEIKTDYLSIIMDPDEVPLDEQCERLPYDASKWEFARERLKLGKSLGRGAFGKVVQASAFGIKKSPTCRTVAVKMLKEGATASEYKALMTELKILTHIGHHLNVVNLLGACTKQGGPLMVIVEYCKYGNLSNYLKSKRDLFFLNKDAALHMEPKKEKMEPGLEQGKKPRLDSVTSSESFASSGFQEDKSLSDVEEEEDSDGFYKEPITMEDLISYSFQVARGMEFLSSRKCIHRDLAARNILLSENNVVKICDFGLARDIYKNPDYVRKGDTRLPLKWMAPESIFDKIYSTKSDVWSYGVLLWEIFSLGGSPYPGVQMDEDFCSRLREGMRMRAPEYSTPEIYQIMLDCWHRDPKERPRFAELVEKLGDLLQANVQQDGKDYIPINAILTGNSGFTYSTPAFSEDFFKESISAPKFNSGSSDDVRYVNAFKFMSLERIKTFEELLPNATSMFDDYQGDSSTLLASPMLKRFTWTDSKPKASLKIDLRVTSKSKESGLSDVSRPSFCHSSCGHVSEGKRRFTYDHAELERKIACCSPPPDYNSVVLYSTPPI

[5] = molecular target: T2, Mitogen-activated protein kinase; ERK1/ERK2 (Homo sapiens); assay: Reduction of ERK1/2 activation in human MDA-MB-435 cells at 20 uM after 1 hr by Western blot analysis; type: cell-based
[6] = molecular target: T5, Dihydrofolate reductase (Escherichia coli) (UniProt P0ABQ4); assay: Inhibition of Escherichia coli DHFR at IC50
T5 sequence (whole entry): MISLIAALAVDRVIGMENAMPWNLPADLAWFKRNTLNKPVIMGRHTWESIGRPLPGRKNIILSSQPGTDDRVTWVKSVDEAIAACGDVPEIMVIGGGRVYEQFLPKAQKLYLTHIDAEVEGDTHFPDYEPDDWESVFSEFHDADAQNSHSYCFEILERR

[7] = molecular target: Platelet-derived growth factor receptor beta (Homo sapiens, UniProt P09619); assay: Inhibition of PDGFRbeta in human SF539 cells by phosphotyrosine cell-based ELISA; parameters: species or system SF-539
[8] = molecular target: Vascular endothelial growth factor receptor 2 (Homo sapiens, UniProt P35968)
Chain of Vascular endothelial growth factor receptor 2 (P35968 whole entry): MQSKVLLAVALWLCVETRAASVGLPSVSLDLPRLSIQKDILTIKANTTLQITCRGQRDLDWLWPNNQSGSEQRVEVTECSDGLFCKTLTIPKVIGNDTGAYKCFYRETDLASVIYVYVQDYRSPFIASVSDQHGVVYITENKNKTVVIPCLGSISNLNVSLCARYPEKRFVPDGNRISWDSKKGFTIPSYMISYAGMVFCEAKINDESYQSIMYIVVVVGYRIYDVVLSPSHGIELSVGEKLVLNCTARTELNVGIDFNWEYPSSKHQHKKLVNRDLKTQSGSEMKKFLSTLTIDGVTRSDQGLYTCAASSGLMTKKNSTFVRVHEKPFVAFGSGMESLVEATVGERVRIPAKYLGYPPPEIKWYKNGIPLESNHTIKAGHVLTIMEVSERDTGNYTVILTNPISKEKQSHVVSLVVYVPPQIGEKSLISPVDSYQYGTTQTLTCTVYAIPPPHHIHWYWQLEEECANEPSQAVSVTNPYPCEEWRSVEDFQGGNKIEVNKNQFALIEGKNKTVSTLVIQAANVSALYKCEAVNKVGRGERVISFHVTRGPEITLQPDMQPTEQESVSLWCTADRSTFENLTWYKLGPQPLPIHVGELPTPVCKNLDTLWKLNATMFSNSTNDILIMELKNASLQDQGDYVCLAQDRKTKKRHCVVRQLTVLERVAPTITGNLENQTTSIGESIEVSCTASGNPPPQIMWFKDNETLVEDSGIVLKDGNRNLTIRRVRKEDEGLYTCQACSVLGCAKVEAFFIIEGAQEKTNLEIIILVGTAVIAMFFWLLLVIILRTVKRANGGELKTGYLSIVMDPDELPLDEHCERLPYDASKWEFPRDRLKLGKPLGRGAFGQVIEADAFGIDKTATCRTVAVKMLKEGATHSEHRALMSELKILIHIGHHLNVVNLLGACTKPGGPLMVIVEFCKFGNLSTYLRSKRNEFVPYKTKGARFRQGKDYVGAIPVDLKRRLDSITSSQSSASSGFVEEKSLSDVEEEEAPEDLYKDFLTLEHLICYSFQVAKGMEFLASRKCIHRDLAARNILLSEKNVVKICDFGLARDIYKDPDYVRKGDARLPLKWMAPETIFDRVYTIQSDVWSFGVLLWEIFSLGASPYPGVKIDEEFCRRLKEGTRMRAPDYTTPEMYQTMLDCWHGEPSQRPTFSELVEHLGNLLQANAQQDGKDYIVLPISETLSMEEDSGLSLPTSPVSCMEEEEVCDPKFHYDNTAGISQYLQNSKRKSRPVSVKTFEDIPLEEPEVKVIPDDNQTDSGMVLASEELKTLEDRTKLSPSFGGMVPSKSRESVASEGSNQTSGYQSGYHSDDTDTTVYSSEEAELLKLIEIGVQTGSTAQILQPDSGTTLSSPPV

[9] = molecular target: Epidermal growth factor receptor (Homo sapiens, UniProt P00533)
Chain of Epidermal growth factor receptor (P00533 whole entry): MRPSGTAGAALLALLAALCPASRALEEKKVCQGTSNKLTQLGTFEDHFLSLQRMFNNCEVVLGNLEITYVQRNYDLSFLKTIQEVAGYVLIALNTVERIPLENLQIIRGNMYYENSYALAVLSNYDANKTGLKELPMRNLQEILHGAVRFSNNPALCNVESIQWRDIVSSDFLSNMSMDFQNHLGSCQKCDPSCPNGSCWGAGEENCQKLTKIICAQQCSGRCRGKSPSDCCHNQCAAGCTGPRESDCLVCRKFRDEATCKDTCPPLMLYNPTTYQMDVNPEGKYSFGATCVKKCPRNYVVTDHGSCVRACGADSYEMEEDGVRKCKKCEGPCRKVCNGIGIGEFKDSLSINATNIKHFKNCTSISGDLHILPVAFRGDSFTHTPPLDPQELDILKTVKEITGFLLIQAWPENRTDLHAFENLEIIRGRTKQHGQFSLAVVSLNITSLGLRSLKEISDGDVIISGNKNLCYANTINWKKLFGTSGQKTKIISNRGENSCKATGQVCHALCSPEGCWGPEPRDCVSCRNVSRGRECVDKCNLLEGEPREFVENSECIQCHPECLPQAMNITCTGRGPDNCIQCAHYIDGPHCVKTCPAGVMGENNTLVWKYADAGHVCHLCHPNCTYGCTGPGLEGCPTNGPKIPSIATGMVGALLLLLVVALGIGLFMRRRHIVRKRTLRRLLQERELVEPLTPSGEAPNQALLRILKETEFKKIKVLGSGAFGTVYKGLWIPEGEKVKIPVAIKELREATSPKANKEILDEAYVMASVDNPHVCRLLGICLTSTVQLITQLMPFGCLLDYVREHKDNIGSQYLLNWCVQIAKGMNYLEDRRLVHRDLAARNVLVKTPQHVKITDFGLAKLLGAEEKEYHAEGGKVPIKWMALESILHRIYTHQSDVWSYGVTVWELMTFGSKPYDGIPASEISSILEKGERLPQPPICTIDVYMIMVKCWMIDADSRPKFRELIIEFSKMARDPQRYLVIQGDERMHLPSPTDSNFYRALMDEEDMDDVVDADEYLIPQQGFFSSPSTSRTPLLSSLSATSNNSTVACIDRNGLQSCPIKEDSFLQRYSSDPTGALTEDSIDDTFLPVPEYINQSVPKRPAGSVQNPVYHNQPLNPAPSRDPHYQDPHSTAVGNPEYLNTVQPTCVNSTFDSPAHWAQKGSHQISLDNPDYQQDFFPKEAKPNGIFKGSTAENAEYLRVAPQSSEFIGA

Row | IC50 [1] | IC50 [7] | IC50 [8] | IC50 [9] | SMILES | Activity [2] | inhibition [3] | IC50 (Dihydrofolate reductase) | IC50 [4] | Activity [5] | inhibition [6]
1 | 39.6 µM | 40.3 µM | 56.3 µM | 10.4 µM | Cc1ccc(Sc2cccc3[nH]c4nc(N)nc(N)c4c23)cc1 | Active | 7% | > 31 µM | 160 µM | Active | 27%
2 | 2.9 µM | – | – | – | COc1ccc(C(=O)Nc2sc3c(c2C(N)=O)CCCC3)cc1OC | – | – | – | – | – | –

Row | SMILES | IC50 [1] | IC50 [7] | IC50 [8] | IC50 [9] | Activity [2] | inhibition [3] | IC50 (Dihydrofolate reductase) | IC50 [4] | Activity [5] | inhibition [6]
3 | Nc1nc(N)c2c(n1)[nH]c1cccc(Sc3ccccc3)c12 | 41.2 µM | – | – | – | Active | 17% | > 33 µM | 118 µM | Active | 35%
